Where two headings read alike, the source gives them in different places.
Tests used:
[1] = target: T1, NK1 receptors in human brain (Homo sapiens, UniProt P25103); test: Netupitant PET receptor occupancy study (11C-GR205171 tracer); assay type: in vivo; conditions: for mean NK1-RO: 96 hours post dose
T1 construct: 6 healthy male volunteers (2 per dose level) receiving single doses of netupitant; from tissue; host or cells: brain of healthy male human volunteers, in vivo
Description: This was a randomized, open-label, positron emission tomography (PET) study using 11C-GR205171 as tracer in 6 healthy male volunteers (2 per dose level) receiving single doses of netupitant (100, 300 or 450 mg) to investigate the degree of occupancy of NK1 receptors in human brain, and to determine the relationship between plasma concentration of netupitant and NK1 receptor occupancy (RO).

[2] = Pharmacokinetics of combined dosage form: randomized, open, 3-way crossover study; assay type: in vivo; conditions: human, fasting; for half-life / Tmax: median (range)
Description: The effects of palonosetron on the pharmacokinetics (PK) of netupitant and the effects of netupitant on the PK of palonosetron were examined in healthy volunteers. A randomized, open, 3-way crossover study was conducted. Each subject participated in 3 treatment periods, each lasting approximately 12 days (Day −1 to Day 11). The treatment periods were separated by wash-out periods of no less than 14 days (between Day 1 of any 2 consecutive treatment periods). Treatment A: oral netupitant 450 mg. administered as single dose of three 150 mg. capsules. Treatment B: oral palonosetron 0.75 mg. and oral netupitant 450 mg. administered simultaneously as three capsules of 150 mg. netupitant followed by 1 capsule of 0.75 mg. palonosetron. Treatment C: oral palonosetron 0.75 mg. administered as single dose as one 0.75 mg. capsule. Doses were administered under fasting conditions. Subjects fasted over-night for approximately 10 hours. Water, however, was permitted up to 1 hour pre-dose. Food intake was permitted 4 hours post-dose, and water was allowed ad libitum 1 hour post-dose. Doses were administered with the subject in an upright position. The subjects remained in an upright position for 4 hours post-dose. The capsules were swallowed whole with 250 mL of room-temperature tap water. Repeated PK blood sampling (for netupitant and/or palonosetron) was performed. The primary PK variables assessed for netupitant and palonosetron were the maximum plasma concentration observed (Cmax), the area under the plasma concentration versus time curve from time zero to the last quantifiable sampling time point (t) (AUC0-t), and the area under the plasma concentration versus time curve from time zero to infinity (AUC0-inf). The secondary PK variables assessed were the terminal elimination half-life (t1/2, z), and the time at which the maximum plasma concentration was observed (tmax). Results are depicted in below Tables 3 and 4, as well as FIGS. 2 and 3.

[3] = system: highly emetogenic chemotherapy (HEC)-induced nausea and vomiting; test: Phase 2 clinical efficacy study, netupitant + palonosetron + dexamethasone; assay type: in vivo, human; set-up: Total Control, Overall: percent of patients / Total Control, Acute: percent of patients / Total Control, Delayed: percent of patients / Complete Protection, Overall: percent of patients / Complete Protection, Acute: percent of patients / Complete Protection, Delayed: percent of patients: concentration or dose not given beside the values; conditions: MFAS
Source text: A phase 2 trial evaluated three single doses of netupitant combined with palonosetron and dexamethasone compared to palonosetron alone and dexamethasone to obtain dose ranging information for netupitant used with oral palonosetron in the CINV patient population.
The objective of the study was to compare the efficacy and safety of three single oral doses of netupitant combined with oral palonosetron and given with dexamethasone, versus oral palonosetron-alone given with dexamethasone (without netupitant) for the prevention of highly emetogenic chemotherapy (HEC)-induced nausea and vomiting. The FDA-approved oral aprepitant regimen given with IV ondansetron and dexamethasone was included in the study as an active comparator for exploratory purposes. The FDA-approved oral palonosetron 0.5 mg. dose was used in each applicable treatment group in this study.
This was a multicenter, randomized, double-blind, double-dummy, parallel group, stratified study. Eligible patients were randomized (stratified by gender) to one of the following treatment groups: • Group 1—0.5 mg. oral palonosetron on Day 1 (with an oral dexamethasone standard regimen: 20 mg. on Day 1 and 8 mg. BID from Day 2 through Day 4) • Group 2—100 mg. oral netupitant plus 0.5 mg. oral palonosetron on Day 1 (with an oral dexamethasone adjusted regimen*: 12 mg. on Day 1 and 8 mg. daily from Day 2 through Day 4) • Group 3—200 mg. oral netupitant plus 0.5 mg. oral palonosetron on Day 1 (with an oral dexamethasone adjusted regimen*: 12 mg. on Day 1 and 8 mg. daily from Day 2 to Day 4) • Group 4—300 mg. oral netupitant plus 0.5 mg. oral palonosetron on Day 1 (with dexamethasone adjusted regimen*: 12 mg. on Day 1 and 8 mg. daily from Day 2 to Day 4) • Group 5—125 mg. oral aprepitant plus IV ondansetron 32 mg. (both on Day 1) then 80 mg. oral aprepitant on Day 2 and Day 3, (all with an oral dexamethasone adjusted regimen: 12 mg. on Day 1 and 8 mg. daily from Day 2 through Day 4)
The primary efficacy endpoint was the complete response rate (defined as no emetic episodes, no rescue medication) within 120 hours after the start of the highly emetogenic chemotherapy administration. Secondary efficacy endpoints were: • Complete response for the 0-24 hour interval (acute phase); and for the 25-120 hour interval (delayed phase); • Complete protection (defined as no emesis, no rescue therapy, no significant nausea); Total control (defined as no emesis, no rescue therapy and no nausea); No nausea (maximum VAS<5 mm); No significant nausea (maximum VAS<25 mm); No rescue medication; No emesis. These endpoints were evaluated for the 0-120 hour interval (overall), acute and delayed phase. • Time to first emetic episode, Time to first rescue medication, Time to treatment failure (based on time to the first emetic episode or time to the first rescue medication, whichever occurs first); • Severity of nausea for the overall, acute and delayed phase; ● Patient global satisfaction with anti-emetic therapy by means of VAS for each 24 hour interval.

[4] = system: nausea, moderately emetogenic chemotherapy; conditions: cited from earlier work
[5] = system: nausea following moderately or highly emetogenic chemotherapy; conditions: humans, compared to a 5-HT3 antagonist alone; cited from earlier work
[6] = 0-24 h, Group 1 (Palo alone) / Group 5 (Aprepitant Regimen)
[7] = 0-120 h, Group 1 (Palo alone) / Group 5 (Aprepitant Regimen)
[8] = 25-120 h, Group 1 (Palo alone) / Group 5 (Aprepitant Regimen)
[9] = HEC (cisplatin) patients, Group 1 (Palo alone) / Group 5 (Aprepitant Regimen)

T1 sequence (P25103 whole entry): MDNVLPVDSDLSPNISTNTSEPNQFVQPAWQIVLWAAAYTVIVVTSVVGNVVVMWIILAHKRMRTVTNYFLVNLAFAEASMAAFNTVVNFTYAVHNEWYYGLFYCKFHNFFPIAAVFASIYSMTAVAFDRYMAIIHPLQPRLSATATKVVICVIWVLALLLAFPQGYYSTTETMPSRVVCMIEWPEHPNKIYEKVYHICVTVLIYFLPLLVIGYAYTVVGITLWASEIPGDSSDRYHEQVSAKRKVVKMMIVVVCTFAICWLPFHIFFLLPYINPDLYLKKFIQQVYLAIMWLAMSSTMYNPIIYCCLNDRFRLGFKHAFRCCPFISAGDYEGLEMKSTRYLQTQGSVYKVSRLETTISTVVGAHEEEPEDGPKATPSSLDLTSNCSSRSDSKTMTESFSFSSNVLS

**Q.** Which results are given for `Cc1ccccc1-c1cc(N2CCN(C)CC2)ncc1N(C)C(=O)C(C)(C)c1cc(C(F)(F)F)cc(C(F)(F)F)c1` [Netupitant, 2-[3,5-bis(trifluoromethyl)phenyl]-N,2-dimethyl-N-[4-(2-methylphenyl)-6-(4-methylpiperazin-1-yl)pyridin-3-yl]propanamide]?
**A.** mean NK1-RO ([1]; 100 mg dose group, 4 of 6 regions): over 70%; mean NK1-RO ([1]; 450 mg dose group, 5 of 6 regions): ≥ 80%; NK1 receptor occupancy (NK1-RO) ([1]; 6 hours post dose, striatum, occipital cortex, frontal cortex and anterior cingulate, reached in 3 of 6 subjects (1 at 300 mg, 2 at 450 mg single oral dose)): ≥ 90%; Cmax ([2]; plasma netupitant, oral netupitant 450 mg single dose, mean (SD)): 650 ng/mL; AUC(0-t) ([2]; plasma netupitant, oral netupitant 450 mg single dose, mean (SD), read-out: Netupitant AUC0-t): 22800 ng·h/mL; AUC ([2]; plasma netupitant, oral netupitant 450 mg single dose, mean (SD), read-out: Netupitant AUCo-inf): 25900 ng·h/mL; half-life ([2]; plasma netupitant, oral netupitant 450 mg single dose, read-out: Netupitant t1/2, z (converted)): 71.8 h; Tmax ([2]; plasma netupitant, oral netupitant 450 mg single dose, read-out: Netupitant tmax): 4.5 h; No Emesis, Overall: percent of patients ([3]; 0-120 h, netupitant 100 mg + palonosetron 0.5 mg oral Day 1, with dexamethasone): 87.4%; No Emesis, Overall: percent of patients ([3]; 0-120 h, netupitant 200 mg + palonosetron 0.5 mg oral Day 1, with dexamethasone): 87.6%; No Emesis, Overall: percent of patients ([3]; 0-120 h, netupitant 300 mg + palonosetron 0.5 mg oral Day 1, with dexamethasone): 91.1%; CR, Overall Phase, 0-120 h: Percent of Patients ([3]; HEC (cisplatin) patients, netupitant 100 mg + palonosetron 0.5 mg oral Day 1, with dexamethasone): 87.4%; CR, Overall Phase, 0-120 h: Percent of Patients ([3]; HEC (cisplatin) patients, netupitant 200 mg + palonosetron 0.5 mg oral Day 1, with dexamethasone): 87.6%; CR, Overall Phase, 0-120 h: Percent of Patients ([3]; HEC (cisplatin) patients, netupitant 300 mg + palonosetron 0.5 mg oral Day 1, with dexamethasone): 89.6%

**Q.** For `Cl.O=C1c2cccc3c2[C@H](CCC3)CN1[C@@H]1CN2CCC1CC2` [Palonosetron, (3aS)-2-[(S)-1-Azabicyclo[2.2.2]oct-3-yl]-2,3,3a,4,5,6-hexahydro-1-oxo-1Hberiz[de]isoquinoline hydrochloride], which half-life ([2]; plasma palonosetron, oral palonosetron 0.75 mg single dose, read-out: Palonosetron t1/2, z (converted)) is on record?
**A.** Its half-life is 34.7 h.

**Q.** And the Tmax ([2]; plasma palonosetron, oral palonosetron 0.75 mg single dose, read-out: Palonosetron tmax)?
**A.** The Tmax was 5.02 h.

**Q.** And the “Complete Protection, Acute: percent of patients” value [3, 6]?
**A.** Its value is 87.5%.

**Q.** And the “No Emesis, Acute: percent of patients” value [3, 6]?
**A.** The value was 89.7%.

**Q.** What about the “No Rescue, Acute: percent of patients” value [3, 6] of the same compound?
**A.** Its value is 97.8%.

**Q.** And the “Total Control, Acute: percent of patients” value [3, 6]?
**A.** The value was 71.3%.

**Q.** And the “No Emesis, Overall: percent of patients” value [3, 7]?
**A.** The value was 76.5%.

**Q.** And the “No Rescue, Overall: percent of patients” value [3, 7]?
**A.** The value was 95.6%.

**Q.** And the “Complete Protection, Delayed: percent of patients” value [3, 8]?
**A.** Its value is 73.5%.

**Q.** And the “No Emesis, Delayed: percent of patients” value [3, 8]?
**A.** The value was 80.1%.

**Q.** And the “No Rescue, Delayed: percent of patients” value [3, 8]?
**A.** The value was 97.1%.

**Q.** What about the “Total Control, Delayed: percent of patients” value [3, 8] of the same compound?
**A.** The value was 52.2%.

**Q.** What about the “CR, Acute Phase, −24 h: Percent of Patients” value [3, 9] of the same compound?
**A.** The value was 89.7%.

**Q.** And the “CR, Delayed Phase, 25-120 h: Percent of Patients” value [3, 9]?
**A.** The value was 80.1%.

**Q.** And the “CR, Overall Phase, 0-120 h: Percent of Patients” value [3, 9]?
**A.** Its value is 76.5%.

**Q.** What about the “No Nausea, Acute: percent of patients” value ([3]; maximum VAS<5 mm, 0-24 h, Group 1 (Palo alone) / Group 5 (Aprepitant Regimen)) of the same compound?
**A.** The value was 75.0%.

**Q.** What about the “No Nausea, Overall: percent of patients” value ([3]; maximum VAS<5 mm, 0-120 h, Group 1 (Palo alone) / Group 5 (Aprepitant Regimen)) of the same compound?
**A.** Its value is 50.7%.

**Q.** And the “No Nausea, Delayed: percent of patients” value ([3]; maximum VAS<5 mm, 25-120 h, Group 1 (Palo alone) / Group 5 (Aprepitant Regimen))?
**A.** The value was 53.7%.

**Q.** What about the “No Significant Nauea, Acute: percent of patients” value ([3]; maximum VAS<25 mm, 0-24 h, Group 1 (Palo alone) / Group 5 (Aprepitant Regimen)) of the same compound?
**A.** Its value is 93.4%.

**Q.** What about the “No Significant Nauea, Overall: percent of patients” value ([3]; maximum VAS<25 mm, 0-120 h, Group 1 (Palo alone) / Group 5 (Aprepitant Regimen)) of the same compound?
**A.** The value was 79.4%.

**Q.** And the “No Significant Nauea, Delayed: percent of patients” value ([3]; maximum VAS<25 mm, 25-120 h, Group 1 (Palo alone) / Group 5 (Aprepitant Regimen))?
**A.** Its value is 80.9%.

**Q.** And the “Total Control, Overall: percent of patients” value ([3]; no emesis, no rescue therapy and no nausea, 0-120 h, Group 1 (Palo alone) / Group 5 (Aprepitant Regimen))?
**A.** Its value is 50.0%.

**Q.** And the “Complete Protection, Overall: percent of patients” value ([3]; no emesis, no rescue therapy, no significant nausea, 0-120 h, Group 1 (Palo alone) / Group 5 (Aprepitant Regimen))?
**A.** The value was 69.9%.

**Q.** Which effect against nausea ([4]; administered in response to moderately emetogenic chemotherapy) does the source give for `CC(=O)N1CCN([C@H]2CCN(C(=O)N(C)[C@H](C)c3cc(C(F)(F)F)cc(C(F)(F)F)c3)[C@@H](c3ccc(F)cc3C)C2)CC1` [casopitant, (2R,4S)-4-(4-acetytlpiperazin-1-yl)-N-{(1R)-1-[3,5-bis(trifluoromethyl)phenyl]ethyl}-2-(4-fluoro-2-methylphenyl)-N-methylpiperidine-1-carboxamide] here?
**A.** The effect against nausea was “no statistically significant effect against nausea”.

**Q.** What about the side effect ([4]; moderately emetogenic chemotherapy) of the same compound?
**A.** The side effect was “induced nausea as a side effect”.

**Q.** With `C[C@@H](O[C@H]1OCCN(Cc2n[nH]c(=O)[nH]2)[C@H]1c1ccc(F)cc1)c1cc(C(F)(F)F)cc(C(F)(F)F)c1` [aprepitant] as the compound, how does the “effect on incidence or severity of nausea” value [5] read?
**A.** Its value is “unable to induce a significant reduction in the incidence or severity of nausea”.
